Experimental findings from patent US4636499A, “Sulphenamides” (priority 1984, dated 1987) are described below.

Assay [1] deals with T1, Hog gastric H^+,K^+ -ATPase (Sus scrofa, UniProt P19156).
T1 construct: from tissue; host or cells: hog gastric membranes (GI-fraction)
The assay is described as follows: In vitro inhibition of gastric H^+,K^+-ATPase. The conditions noted are these: pH 7,4; 30 minutes of incubation; 10 μg membrane protein (GI-fraction); read-out: concentration at half-maximal inhibition (IC50) (converted). It is filed as biochemical. How it is done: I. In vitro inhibition of gastric H^+,K^+ -ATPase
Hog gastric H^+,K^+ -ATPase was purified according to Saccomani et al., Biochim. Biophys. Acta 465, 311-330, 1977. 10 μg of membrane protein (GI-fraction in the reference listed above) was incubated with 2 mmol/l of piperazine-N,N'-bis-(2-ethane sulfonic acid) buffer pH 7,4 and the test compound in concentrations 10^-7 -10^-4 M in a final volume of 1 ml. (The test compound was dissolved in methanol. Aliquots of these stock solutions were diluted to a final methanol concentration below 1%, which on its own had no effect on the enzyme activities.) After 30 minutes of incubation, the remaining H^+,K^+ -ATPase activity was determined, according to Wallmark et al., Biochim. Biophys. Acta, 728, 31-38, 1983. A dose-response curve was constructed and the concentration at half-maximal inhibition (IC50) could be determined.

For assay [2], the system named is gastric acid secretion. The assay is described as follows: Inhibiting effect in vivo on gastric acid secretion in conscious dog. To be noted: 4 μmol/kg; orally by stomach tube; histamine-induced; gastric fistula dogs. How it is done:
II. Inhibiting effect in vivo on gastric acid secretion in conscious dog
Chronic gastric fistula dogs were used. These dogs have been surgically provided with a gastric cannula in the stomach and a duodenal fistula used for direct intraduodenal administration of test compounds. Following a 4 weeks' recovery period after surgery, tests were performed once a week on each dog. Food and water were withdrawn 18 hours before each test.
The test compound was suspended in 0.5% Methocel® (90 HG, 15.000, Dow Chem Corp.), the pH was immediately adjusted to about 4 by addition of hydrochloric acid and the suspension administered orally by using a stomach tube. After 1 hour gastric acid secretion was induced by continuous infusion of histamine at individual doses (400-600 nmol/kg, h), resulting in approx. 90% of maximal secretion of gastric acid. The gastric juice was collected by free flow from the gastric cannula in consecutive 30 minutes samples for 2 hours. The samples were titrated to pH 7.0 with 0.1M NaOH using a Radiometer automatic titrator and the acid output was calculated. The percent inhibition of acid secretion was calculated by comparing in each dog the acid output in the tests to the acid output in control tests when only the vehicle was given. The peak inhibitory effect for each compound was determined. […]

For assay [3], the system named is ethanol-induced gastric lesions. Description: In vivo cytoprotective effect: effect on ethanol-induced gastric lesions in the rat. The conditions noted are these: for total lengths of lesions in the stomachs: 20 μmol/kg oral. Further details: species or system rat (female Spraque-Dawley). The protocol: III. In vivo cytoprotective effect: Effect on ethanol-induced gastric lesions in the rat
Two groups of female Spraque-Dawley rats (190-220 g) were used, one for the test compound and one for the control experiment. Food, but not water, was removed 24 h before the experiments.
The animals in the test group were treated orally with the test compound dissolved in 0.01M HCl immediately before the test and the animals in the control group were given the vehicle (0.01M HCl) in a dose of 1 ml/kg.
Five or thirty minutes later the rats were given orally 1 ml of absolute ethanol (a standard agent for inducing gastric mucosal lesions).
Thirty minutes later the rats were killed by carbon dioxide asphyxiation, their stomachs dissected out and the gastric mucosae were examined for the presence of necrotic lesions. The total lengths of the lesions in the stomachs were measured in the test group and in the control group, in both cases treated five and thirty minutes before with ethanol.

T1 sequence (P19156 2-1034 limits assumed): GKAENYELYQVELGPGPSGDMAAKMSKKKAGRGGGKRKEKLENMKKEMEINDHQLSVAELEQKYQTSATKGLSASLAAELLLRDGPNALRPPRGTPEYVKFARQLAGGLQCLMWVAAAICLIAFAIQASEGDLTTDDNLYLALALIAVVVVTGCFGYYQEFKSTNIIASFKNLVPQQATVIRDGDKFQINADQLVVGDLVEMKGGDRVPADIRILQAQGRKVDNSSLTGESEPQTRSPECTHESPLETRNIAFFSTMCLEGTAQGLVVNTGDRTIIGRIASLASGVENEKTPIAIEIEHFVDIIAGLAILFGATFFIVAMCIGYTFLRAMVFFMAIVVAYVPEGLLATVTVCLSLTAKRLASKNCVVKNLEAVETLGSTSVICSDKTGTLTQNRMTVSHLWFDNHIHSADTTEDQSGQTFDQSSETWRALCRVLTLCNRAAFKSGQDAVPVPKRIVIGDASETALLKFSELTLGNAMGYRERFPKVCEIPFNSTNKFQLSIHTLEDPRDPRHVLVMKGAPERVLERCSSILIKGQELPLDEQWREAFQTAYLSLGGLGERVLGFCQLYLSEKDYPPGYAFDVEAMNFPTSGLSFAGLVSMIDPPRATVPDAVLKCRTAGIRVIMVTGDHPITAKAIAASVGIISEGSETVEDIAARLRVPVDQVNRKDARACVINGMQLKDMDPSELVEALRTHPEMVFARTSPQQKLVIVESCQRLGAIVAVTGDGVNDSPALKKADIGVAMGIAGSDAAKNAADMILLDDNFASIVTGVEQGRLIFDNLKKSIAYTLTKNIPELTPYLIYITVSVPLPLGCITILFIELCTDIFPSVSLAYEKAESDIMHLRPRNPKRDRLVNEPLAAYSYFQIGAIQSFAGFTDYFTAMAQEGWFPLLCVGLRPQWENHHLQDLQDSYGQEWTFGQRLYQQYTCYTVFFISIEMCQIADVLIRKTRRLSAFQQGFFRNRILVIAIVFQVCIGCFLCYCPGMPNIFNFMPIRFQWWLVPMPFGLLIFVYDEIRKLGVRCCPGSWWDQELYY
T1 sequence (P18434 whole entry partner): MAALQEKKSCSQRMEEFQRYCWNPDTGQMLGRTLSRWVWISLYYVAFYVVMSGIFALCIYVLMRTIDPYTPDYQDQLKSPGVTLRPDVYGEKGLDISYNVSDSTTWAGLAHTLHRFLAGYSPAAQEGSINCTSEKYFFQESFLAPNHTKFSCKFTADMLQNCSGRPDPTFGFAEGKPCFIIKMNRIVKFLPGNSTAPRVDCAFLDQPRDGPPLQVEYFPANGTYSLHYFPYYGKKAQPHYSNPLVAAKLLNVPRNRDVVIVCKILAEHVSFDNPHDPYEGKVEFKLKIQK

As for “2,4-Dimethyl-3,9-dimethoxy-5H-pyrido[1',2':4,5][1,2,4]thiadiazino[2,3-a]benzimidazol-13-ium tetrafluoroborate (1A) and 2,4-Dimethyl-3,10-dimethoxy-5H-pyrido[1',2':4,5][1,2,4]thiadiazino[2,3-a]benzimidazol-13-ium tetrafluoroborate (1B) (isomeric mixture) [Examples 1A and 1B]”, the IC50 in assay [1] is 600 nM. Also, the “percent inhibition of acid secretion (peak inhibitory effect)” value in assay [2] is reported as 40%. For the same substance, the “total lengths of lesions in the stomachs” value is on record as 5.3 cm in assay [3] (5 min before ethanol, control 11.4 cm) and 4.4 cm in assay [3] (30 min before ethanol, control 10.4 cm). In addition, the “ED50-value (cytoprotective effect)” value in assay [3] (oral, ethanol-induced gastric lesions, indicated by lesion reduction at 20 μmol/kg) was “below 20 μmol/kg”.
